Test results taken from US6703362B1, “Random peptides that bind to gastro-intestinal tract (GIT) transport receptors and related methods” (Cytogen Corporation, priority 1997, dated 2004).
Square brackets hold non-standard residues; d marks the D form. Peptide text beside a SMILES is read from it. * marks the point of attachment. Dansyl = CN(C)c1cccc2c(S(=O)(=O)*)cccc12

Legend:
[1] = system: fixed Caco-2 cells; experiment: Inhibition of GST-peptide fusion binding to fixed Caco-2 cells by synthetic peptides; settings: peptide from 100 μg/ml serially diluted; GST fusion 10 μg
From the text: Caco-2 cells were fixed, treated with phenylhydrazine and blocked as described above. […] GST-PAX2 binding was inhibited by ZElan032, ZElan033, and ZElan035.

[2] = Peptide stability in simulated intestinal fluid (SIF); assay type: in vitro ADME; settings: for Rel. Stab.: rank, 1 = most stable to SIF; for remaining at 1 min, 1 mg/ml / remaining at 1 h, 1 mg/ml / remaining at 3 h, 1 mg/ml / remaining at 24 h, 1 mg/ml: simulated intestinal fluid (pancreatin), pH 7.5, 10,000 fold diluted SIF, 37° C.; for remaining at 1 min, 1 mg/ml: read-out: Percent Remaining at: 1 m; for remaining at 1 h, 1 mg/ml: read-out: Percent Remaining at: 1 h; for remaining at 3 h, 1 mg/ml: read-out: Percent Remaining at: 3 h; for remaining at 24 h, 1 mg/ml: read-out: Percent Remaining at: 24 h
Procedure: The relative stability for ZElanO3l, ZElanO53 and ZElan054 was determined in simulated intestinal fluid (SIF) SIF was made by dissolving 100 mg of pancreatin (Sigma cat#P-1625, lot# 122H0812)in 8.4 ml of phosphate stock solution, adjusting the pH to 7.5 with 0.2N NaOH and adjusting the volume to 10 ml with water.
Peptide (3.25 mg) was dissolved in 3.25 ml of 10,000 fold diluted SIF solution at 37° C. Aliquots (0.7 ml) of the digestion solution were then withdrawn at <1 min, 1 h, 3 h, and 21 h or 24 h. The samples were quickly passed through a syringe filter (Millipore Millex-GV 0.22 μm, part# SLGV025LS, lot# H2BM95250) and 300 μL of the filtered solution was immediately injected onto a Hewlett-Packard HPLC system equipped with a C-8 column (Applied Biosystems column and guard column: column-p/n 0711-0023 Spheri-5 ODS 5 μm, 220×4.6 mm). The products were eluted at 1.5 ml/min using an acetonitrile-water gradient. The major fluorescent peaks were collected, lyopholized and identified by MS analysis.

[3] = system: P100 membrane fractions derived from Caco-2 cells; experiment: Dansylated peptide ELISA: relative binding of PAX2 and HAX42 peptides to P100 (ratio to ZElan021); settings: PAX2 peptides, ratio to ZElan021 = 1.00
Outline: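 P100 membrane fraction from Caco-2 cells (normally 100 μg/ml) coated in carbonate buffer pH9.6, blocked with 2% Marvel/PBS, then incubated with dansylated peptides. Detection via anti-mouse HRP conjugate and TMB, OD read at 650nm; binding expressed relative to ZElan021.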

[4] = system: intestinal tissue; experiment: Preselected phage libraries, rat closed loop: absorption/internalization to intestinal tissue (hybridization autoradiograph); assay type: in vivo; settings: hSI pool of phages
[5] = system: fixed Caco-2 or C2BBe1 cells; experiment: ELISA of GST fusion proteins on fixed Caco-2 or C2BBe1 cells; assay type: binding
Procedure: Fixed Caco-2, C2BBe1, and A431 cell plates were prepared by growing cells on tissue culture treated microtiter plates. When cells were confluent, plates were fixed with 10% formaldehyde, washed twice with PBS and stored with 0.5%BSA-PBS at −20° C. […] The standard ELISA procedure was followed at this point.
The standard ELISA procedure was modified as follows. GST proteins were diluted to an appropriate concentration in PBS containing lkBSA and 0.05% Tween20 (1%BPT), titered and incubated one hour at room temperature. Following five washes an anti-GST monoclonal antibody was added (Sigma, St. Louis Clone GST-2 diluted 1:10,000 in 1%BPT) and incubated one hour. After five more washes goat anti-mouse IgG2b-HRP was added (Southern Biotechnology Associates Inc., Birmingham, Ala., diluted 1:4000 in 1%BPT) and incubated one hour. After five washes plates were developed with TMB peroxidase substrate (Kirkegard and Perry, Gaithersburg, Md.). All data is presented with background binding subtracted.

[6] = system: P100 membrane fraction derived from Caco-2 cells; experiment: GST-PAX2 peptides relative binding to P100 fractions (ratio to GST-HAX42); settings: 20 μg/ml GST-peptide; binding to plastic subtracted; GST-HAX42 = 1.00
Procedure: The peptides and proteins were analyzed by a dansylated peptide ELISA method in which 96 well plates were coated overnight at 4° C. with 100 μl/well coating protein (normally 100 μg/ml P100 membrane fraction) in 0.05M carbonate buffer pH9.6. Nonspecific binding was blocked using 200 μl/well, 2% Marvel/PBS for 2 hours at 37° C. prior to incubation with dansylated peptides. The plates were washed three times with PBS/0.05% Tween 20 and after each subsequent incubation step. […] A buffer blank control was included to ensure that background binding to plastic was not due to the antibodies used in the assay system. […] The plates were then incubated with an anti-mouse X-HRP conjugated antibody (Southern Biotech 1060-05) at a 1:10,000 dilution in blocking solution, 100 μl/well for 1 hour at room temperature. Plates were developed using 75 μl/well Bionostics TMB substrate and incubated for approximately 10 minutes. The developing reaction was stopped using Bionostics Red Stop solution (25 μl/well), and the optical density of the plates was read at 650nm.
After subtraction of the GST-peptide binding to plastic from P100 binding values, the binding of GST-PAX2 peptides were represented as a ratio of GST-HAX42 binding to P100, which was given the arbitrary value of 1.00. The following ratios were determined from binding to P100 of GST-peptides at a peptide concentration of 20 μg/ml. Bold denotes positive binding to the P100 membrane fraction.

C[C@H](NC(=O)[C@H](CC(N)=O)NC(=O)[C@H](CCC(=O)O)NC(=O)[C@@H](N)CCCCNS(=O)(=O)c1cccc2c(N(C)C)cccc12)C(=O)N[C@@H](CC(N)=O)C(=O)N[C@H](C(=O)N[C@@H](CCCNC(=N)N)C(=O)N[C@@H](CCCCN)C(=O)N[C@@H](CO)C(=O)N[C@@H](CO)C(=O)N[C@@H](CCCNC(=N)N)C(=O)N[C@@H](CO)C(=O)N[C@@H](CC(N)=O)C(=O)N1CCC[C@H]1C(=O)N[C@@H](CCCNC(=N)N)C(=O)NCC(=O)N[C@@H](CCCNC(=N)N)C(=O)N[C@@H](CCCNC(=N)N)C(=O)N[C@@H](Cc1c[nH]cn1)C(=O)N1CCC[C@H]1C(=O)NCC(N)=O)[C@@H](C)O [ZElan028] (H-K(Dansyl)ENANTRKSSRSNPRGRRHPG-NH2)
inhibition of GST-P31 binding [1]: inhibited

C[C@@H](O)[C@H](NC(=O)[C@@H](N)CCCCNS(=O)(=O)c1cccc2c(N(C)C)cccc12)C(=O)N[C@@H](CCCNC(=N)N)C(=O)N[C@@H](CCCCN)C(=O)N[C@@H](CO)C(=O)N[C@@H](CO)C(=O)N[C@@H](CCCNC(=N)N)C(=O)N[C@@H](CO)C(=O)N[C@@H](CC(N)=O)C(=O)N1CCC[C@H]1C(=O)N[C@@H](CCCNC(=N)N)C(=O)NCC(=O)N[C@@H](CCCNC(=N)N)C(=O)N[C@@H](CCCNC(=N)N)C(=O)N[C@@H](Cc1c[nH]cn1)C(=O)N1CCC[C@H]1C(=O)NCC(N)=O [ZElan031] (H-K(Dansyl)TRKSSRSNPRGRRHPG-NH2)
inhibition of GST-P31 binding [1]: inhibited | Rel. Stab. [2]: 3 | remaining at 1 min, 1 mg/ml [2]: 100% | remaining at 1 h, 1 mg/ml [2]: 38.7% | remaining at 3 h, 1 mg/ml [2]: 0% | remaining at 24 h, 1 mg/ml [2]: 0%

CC(C)C[C@H](NC(=O)[C@H](CCCNC(=N)N)NC(=O)[C@H](CCCNC(=N)N)NC(=O)[C@H](CC(N)=O)NC(=O)[C@H](Cc1c[nH]cn1)NC(=O)[C@H](CO)NC(=O)[C@H](CO)NC(=O)[C@H](Cc1c[nH]cn1)NC(=O)[C@H](CCCCN)NC(=O)[C@H](C)NC(=O)[C@H](CC(N)=O)NC(=O)[C@@H](NC(=O)[C@@H](N)CCCCNS(=O)(=O)c1cccc2c(N(C)C)cccc12)[C@@H](C)O)C(=O)N[C@@H](CCCNC(=N)N)C(=O)N[C@H](C(=O)N[C@@H](CCCNC(=N)N)C(=O)N[C@@H](CO)C(=O)N[C@@H](CCCNC(=N)N)C(=O)N1CCC[C@H]1C(=O)N[C@@H](CC(N)=O)C(N)=O)[C@@H](C)O [ZElan032] (H-K(Dansyl)TNAKHSSHNRRLRTRSRPN-NH2)
inhibition of GST-PAX2 binding [1]: inhibited | Binding value at 20 μg/ml ([3]; first 20 μg/ml column): 1.43 | Binding value at 50 μg/ml ([3]; first 50 μg/ml column): 0.95 | Binding value at 20 μg/ml ([3]; second 20 μg/ml column): 2.87 | Binding value at 50 μg/ml ([3]; second 50 μg/ml column): 1.06

CC(C)C[C@H](NC(=O)[C@H](CCCNC(=N)N)NC(=O)[C@H](CCCNC(=N)N)NC(=O)[C@H](CC(N)=O)NC(=O)[C@H](Cc1c[nH]cn1)NC(=O)[C@H](CO)NC(=O)[C@H](CO)NC(=O)[C@H](Cc1c[nH]cn1)NC(=O)[C@H](CCCCN)NC(=O)[C@H](C)NC(=O)[C@H](CC(N)=O)NC(=O)[C@@H](NC(=O)[C@@H](N)CCCCNS(=O)(=O)c1cccc2c(N(C)C)cccc12)[C@@H](C)O)C(=O)N[C@@H](CCCNC(=N)N)C(=O)N[C@H](C(=O)N[C@@H](CCCNC(=N)N)C(N)=O)[C@@H](C)O [ZElan033] (H-K(Dansyl)TNAKHSSHNRRLRTR-NH2)
inhibition of GST-PAX2 binding [1]: inhibited | Binding value at 20 μg/ml ([3]; first 20 μg/ml column): 0.35 | Binding value at 50 μg/ml ([3]; first 50 μg/ml column): 0.80 | Binding value at 20 μg/ml ([3]; second 20 μg/ml column): 1.57 | Binding value at 50 μg/ml ([3]; second 50 μg/ml column): 0.66

CC(C)C[C@H](NC(=O)[C@H](CCCNC(=N)N)NC(=O)[C@H](CCCNC(=N)N)NC(=O)[C@H](CC(N)=O)NC(=O)[C@H](Cc1c[nH]cn1)NC(=O)[C@H](CO)NC(=O)[C@H](CO)NC(=O)[C@@H](N)CCCCNS(=O)(=O)c1cccc2c(N(C)C)cccc12)C(=O)N[C@@H](CCCNC(=N)N)C(=O)N[C@H](C(=O)N[C@@H](CCCNC(=N)N)C(N)=O)[C@@H](C)O [ZElan035] (H-K(Dansyl)SSHNRRLRTR-NH2)
inhibition of GST-PAX2 binding [1]: inhibited | Binding value at 20 μg/ml ([3]; first 20 μg/ml column): 0.12 | Binding value at 50 μg/ml ([3]; first 50 μg/ml column): 0.81 | Binding value at 20 μg/ml ([3]; second 20 μg/ml column): 0.43 | Binding value at 50 μg/ml ([3]; second 50 μg/ml column): 0.77

C[C@@H](O)[C@H](NC(=O)[C@@H](N)CCCCNS(=O)(=O)c1cccc2c(N(C)C)cccc12)C(=O)N[C@@H](CCCNC(=N)N)C(=O)N[C@@H](CCCCN)C(=O)N[C@@H](CO)C(=O)N[C@@H](CO)C(=O)N[C@H](CCCNC(=N)N)C(=O)N[C@@H](CO)C(=O)N[C@@H](CC(N)=O)C(=O)N1CCC[C@H]1C(=O)N[C@@H](CCCNC(=N)N)C(=O)NCC(=O)N[C@H](CCCNC(=N)N)C(=O)N[C@@H](CCCNC(=N)N)C(=O)N[C@@H](Cc1c[nH]cn1)C(=O)N1CCC[C@H]1C(=O)NCC(N)=O [ZElan054, H2N—K(dns)TRKSSrSNPRGrRHPG—CONH2] (H-K(Dansyl)TRKSS[dR]SNPRG[dR]RHPG-NH2)
inhibition of GST-P31 binding [1]: inhibited | Rel. Stab. [2]: 2 | remaining at 1 min, 1 mg/ml [2]: 97.4% | remaining at 1 h, 1 mg/ml [2]: 58.2% | remaining at 3 h, 1 mg/ml [2]: 11.6% | remaining at 24 h, 1 mg/ml [2]: 2.7%

H-K(Dansyl)GRNHDVVSSNTHKSYRSPRSASYPRLSNDRTDRTEPAPSS-NH2 [ZElan083, reference compound]
Binding value at 20 μg/ml ([3]; first 20 μg/ml column): 0.43 | Binding value at 50 μg/ml ([3]; first 50 μg/ml column): 1.03 | Binding value at 20 μg/ml ([3]; second 20 μg/ml column): 0.63 | Binding value at 50 μg/ml ([3]; second 50 μg/ml column): 0.88

H-K(Dansyl)SARDSGPAEDGSRAVRLNGVENANTRKSSRSNPRGRRHPGG-NH2 [ZElan024]
inhibition of GST-P31 binding [1]: inhibited

H-K(Dansyl)SEANLDGRKSRYSSPRRNSSTRPRTSPNSVHARYPSTDHD-NH2 [ZElan026, reference compound]
inhibition of GST-HAX42 binding [1]: inhibited

H-K(Dansyl)SRANTDGRKSRYSSPRRNSSTEPRLSPNSVHARYPSTDHD-NH2 [ZElan038, reference compound]
inhibition of GST-HAX42 binding [1]: inhibited

RVGQCTDSDVRRPWARSCAHQGCGAGTRNSHGCITRPLRQASAH [Phage SNi10]
found in the intestine samples or fractions [4]: found in the intestine samples or fractions

gst-RGSTGTAGGERSGVLNLHTRDNASGSGFKPWYPSNRGHK [GST-5PAX5]
binding to fixed Caco-2 or C2BBe1 cells relative to GST control [5]: weak to moderate binding

gst-RRLRTRSRPN [GST-115]
Value (binding to P100 as ratio of GST-HAX42 binding) [6]: 0.36

gst-SPCGGGSWGRFMQGGLFGGRTDGCGAHRNRTSASLEPPSSDY [GST-SNi34]
binding to fixed Caco-2 or C2BBe1 cells relative to GST control [5]: bound fixed Caco-2 or C2BBe1 cells

gst-SRPYSVDSDSDTNAKHSSHNR [GST-105]
Value (binding to P100 as ratio of GST-HAX42 binding) [6]: −0.08

gst-SSHNRRLRTR [GST-114]
Value (binding to P100 as ratio of GST-HAX42 binding) [6]: 0.17

gst-STPPSREAYSRPYSVDSDSD [GST-104]
Value (binding to P100 as ratio of GST-HAX42 binding) [6]: 0.01

gst-TNAKHSSHN [GST-113]
Value (binding to P100 as ratio of GST-HAX42 binding) [6]: 0.26
